1 compound from article PMC10299909, “Structural basis of efficacy-driven ligand selectivity at GPCRs” (Nature Chemical Biology, 2023) can be followed below.

Assay [1] concerns the target T1, M4 L190F mAChR (Homo sapiens, UniProt P08173, L190F).
T1 construct: expressed in transfected cells; host or cells: CHO FlpIn
T1 sequence (P08173 1-479 L190F): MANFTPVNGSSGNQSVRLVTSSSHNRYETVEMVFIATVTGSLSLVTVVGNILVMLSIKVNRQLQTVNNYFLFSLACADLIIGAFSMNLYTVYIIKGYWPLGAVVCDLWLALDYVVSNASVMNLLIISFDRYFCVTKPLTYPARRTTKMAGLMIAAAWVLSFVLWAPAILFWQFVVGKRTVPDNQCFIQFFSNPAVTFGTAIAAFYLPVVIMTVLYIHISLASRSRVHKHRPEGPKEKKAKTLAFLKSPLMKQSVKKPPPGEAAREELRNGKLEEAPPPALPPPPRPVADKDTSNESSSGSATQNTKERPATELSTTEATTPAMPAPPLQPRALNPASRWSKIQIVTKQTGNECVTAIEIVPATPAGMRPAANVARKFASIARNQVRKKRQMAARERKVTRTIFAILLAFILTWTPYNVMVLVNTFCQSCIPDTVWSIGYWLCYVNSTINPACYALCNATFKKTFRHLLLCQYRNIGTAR
Nature of the assay: pERK1/pERK2 signaling assay (AlphaScreen SureFire), CHO FlpIn cells. The settings on record: M4(L190F); second set of experiments. Type of assay: cell-based. For orientation: Bead proximity is the source of the signal in Alpha formats.

For assay [2], the target named is T2, M4 mAChR (Homo sapiens, UniProt P08173).
T2 construct: expressed in transfected cells; host or cells: CHO FlpIn
T2 sequence (P08173 1-479): T1 sequence (P08173 1-479 L190F) with F190L
Nature of the assay: whole-cell [3H]NMS radioligand competition binding, CHO FlpIn cells. The settings on record: read-out: Affinities M2 M4: binding normalised to Buffer only-TB = 100.

Assay [3] deals with T3, M5 mAChR (Homo sapiens, UniProt P08912).
T3 construct: expressed in transfected cells; host or cells: CHO FlpIn
T3 sequence (P08912 1-532): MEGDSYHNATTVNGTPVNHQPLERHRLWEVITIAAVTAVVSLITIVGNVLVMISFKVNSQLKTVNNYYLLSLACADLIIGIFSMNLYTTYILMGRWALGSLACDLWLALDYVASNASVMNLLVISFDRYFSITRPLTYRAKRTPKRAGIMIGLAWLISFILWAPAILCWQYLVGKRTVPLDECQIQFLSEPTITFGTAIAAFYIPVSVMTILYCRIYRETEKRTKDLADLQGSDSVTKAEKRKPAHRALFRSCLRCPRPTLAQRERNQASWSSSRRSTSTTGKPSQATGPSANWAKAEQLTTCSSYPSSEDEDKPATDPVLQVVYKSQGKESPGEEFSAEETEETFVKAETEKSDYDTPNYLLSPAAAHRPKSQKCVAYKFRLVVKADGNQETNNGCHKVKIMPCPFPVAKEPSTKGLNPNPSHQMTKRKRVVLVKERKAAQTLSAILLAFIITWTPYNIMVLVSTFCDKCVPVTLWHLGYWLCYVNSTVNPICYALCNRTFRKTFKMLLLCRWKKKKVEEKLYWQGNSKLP
Briefly: pERK1/pERK2 signaling assay (AlphaScreen SureFire), CHO FlpIn cells. Type of assay: cell-based. As to conditions: first set of experiments.

The target of assay [4] is T4, M3 mAChR (Homo sapiens, UniProt P20309).
T4 construct: expressed in transfected cells; host or cells: CHO FlpIn
T4 sequence (P20309 whole entry): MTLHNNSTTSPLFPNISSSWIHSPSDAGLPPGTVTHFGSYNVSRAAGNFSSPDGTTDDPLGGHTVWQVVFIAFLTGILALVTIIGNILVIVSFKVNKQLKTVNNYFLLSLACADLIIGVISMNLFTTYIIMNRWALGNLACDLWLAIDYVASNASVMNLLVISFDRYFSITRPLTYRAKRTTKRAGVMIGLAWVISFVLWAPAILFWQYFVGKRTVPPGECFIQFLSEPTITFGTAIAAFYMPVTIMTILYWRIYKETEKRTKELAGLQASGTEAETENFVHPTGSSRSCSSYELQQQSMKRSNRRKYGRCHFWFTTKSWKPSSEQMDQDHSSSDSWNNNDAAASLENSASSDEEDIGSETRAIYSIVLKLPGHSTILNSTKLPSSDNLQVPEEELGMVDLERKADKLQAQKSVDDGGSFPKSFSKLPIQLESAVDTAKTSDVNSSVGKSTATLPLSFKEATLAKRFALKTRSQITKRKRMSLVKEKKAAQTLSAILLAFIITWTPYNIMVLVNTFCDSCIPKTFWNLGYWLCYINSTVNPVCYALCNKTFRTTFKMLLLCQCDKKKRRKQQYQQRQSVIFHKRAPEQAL
Briefly: whole-cell [3H]NMS radioligand competition binding, CHO FlpIn cells. The settings on record: first set of experiments, read-out: pKI (radioligand binding competition with [3H]NMS) (converted). In general terms: In a radioligand displacement assay an active substance lowers the binding of a labelled ligand.

In assay [5] the target is T5, M2 mAChR (Homo sapiens, UniProt P08172).
T5 sequence (P08172 1-466): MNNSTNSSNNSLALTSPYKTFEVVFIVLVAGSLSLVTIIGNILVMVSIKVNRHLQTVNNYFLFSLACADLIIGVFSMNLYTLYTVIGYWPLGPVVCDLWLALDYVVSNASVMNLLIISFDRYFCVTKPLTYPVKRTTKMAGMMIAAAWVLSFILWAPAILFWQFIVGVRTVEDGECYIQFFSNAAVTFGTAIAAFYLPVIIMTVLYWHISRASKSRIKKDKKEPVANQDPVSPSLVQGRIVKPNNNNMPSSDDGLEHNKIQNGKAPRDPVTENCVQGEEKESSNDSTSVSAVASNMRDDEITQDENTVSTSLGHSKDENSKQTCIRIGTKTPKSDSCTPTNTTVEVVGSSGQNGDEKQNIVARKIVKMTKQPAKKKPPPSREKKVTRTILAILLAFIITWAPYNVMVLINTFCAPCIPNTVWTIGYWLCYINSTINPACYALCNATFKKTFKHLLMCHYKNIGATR
The description is as above.

Assay [6] concerns the target T4, M3 mAChR. Briefly: pERK1/pERK2 signaling assay (AlphaScreen SureFire), CHO FlpIn cells. Type of assay: cell-based.
The target in assay [7] is T2, M4 mAChR. Described as above. The format is cell-based.
The target in assay [8] is T1, M4 L190F mAChR. Nature of the assay: BRET TRUPATH GoA activation (G-protein dissociation) assay. Type of assay: cell-based. The settings on record: T=[…]. The procedure:
(§1) Cells were seeded at 20,000 cells per well into 96-well flat-bottom white culture plates and grown for 4 h. Plasmid DNA (20 ng per well of Gα, Gβ and Gγ at a 1:1:1 ratio) and linear polyethylenimine were added to the cells in a 1:6 ratio. To allow for protein expression, cells were then incubated (37 °C, 5% CO2) for 48 h before the measurement of agonist activity. […] The initial 4 min of measurement was considered baseline counts before ligand or vehicle addition, with BRET readings every 2 min for a further 8 min following drug or vehicle addition.
(§2) Concentration–response curves were fitted to a three-parameter logistic equation to derive ligand potency (pEC50) estimates.
(§3) Data was analyzed using the operational model of agonism to quantify the efficacy (Logτ) of each agonist in each cell line, and subsequently corrected for receptor expression level differences between cell lines (Logτc), using the M2 WT as reference. […] Source data
On the technique in general: Bioluminescence resonance energy transfer reports proximity on the nanometre scale.

The target in assay [9] is T6, M2 WT mAChR (Homo sapiens, UniProt P08172).
T6 construct: expressed in transfected cells; host or cells: CHO FlpIn
T6 sequence (P08172 1-466): T5 sequence (P08172 1-466)
The description is as above. The settings on record: M2 WT; T=[…]. The format is cell-based. As for the experimental part: as §1, §2, §3

Assay [10] concerns the target T7, M4 WT mAChR (Homo sapiens, UniProt P08173).
T7 construct: expressed in transfected cells; host or cells: CHO FlpIn
T7 sequence (P08173 1-479): T1 sequence (P08173 1-479 L190F) with F190L
The description is as above. The format is cell-based. The settings on record: T=[…].

Where a chain is given by its changes, count along the chain named.

On to `CCCCCCOc1nsnc1C1=CCCN(C)C1` [Xanomeline, xanomeline], for which the “Emax pERK1/2” value stood at 90 ± 8 % FBS stimulation in [1]; 80 ± 8 % FBS stimulation in [3]; 62 ± 6 % FBS stimulation in assay [6]; 92 ± 4 % FBS stimulation in assay [7] (first set of experiments (top 5 rows)); 101 ± 3 % FBS stimulation in assay [7] (second set of experiments (bottom 4 rows)). Besides, the remaining binding at 10 µM in assay [2] (M4, Log[Ligand] (M) -5, individual experiments) turned out to be 1.95%. In addition, the remaining binding at 1 µM in [2] (M4, Log[Ligand] (M) -6, individual experiments) was determined as 18.6%. The remaining binding at 0.1 µM amounted to 88% in assay [2] (M4, Log[Ligand] (M) -7, individual experiments) and 83.3% in [5] (read-out: Affinities M2 M4: binding normalised to Buffer only-TB = 100, M2, Log[Ligand] (M) -7, individual experiments). Besides, in [2] (M4, Log[Ligand] (M) -9, individual experiments), the remaining binding at 0.001 µM was 105%. Further, in [4], the Ki was 100 nM. The remaining binding at 0.01 µM in [5] (read-out: Affinities M2 M4: binding normalised to Buffer only-TB = 100, M2, Log[Ligand] (M) -8, individual experiments) turned out to be 90.2%. The remaining binding at 0.0001 µM in assay [5] (read-out: Affinities M2 M4: binding normalised to Buffer only-TB = 100, M2, Log[Ligand] (M) -10, individual experiments) stood at 101%. Besides, in assay [6] (M3, first set of experiments, read-out: pEC50 pERK1/2 (converted)), the EC50 was 117 nM. Also, the entries for the “Log(Tau) corrected for receptor expression (Logτc), GoA activation” value in assay [8], in [9] and in assay [10] were -0.36, -0.65 and 0.38, respectively. In addition, the activation at 1000 µM in [8] ([…], Log[Ligand] (M) -3, individual experiments, read-out: GoA activation response) was determined as 3.92%. For the same compound, in [8] ([…], Log[Ligand] (M) -5, individual experiments, read-out: GoA activation response), the activation at 10 µM is 49%.
